Assay [1] is described as follows: LCMS analysis of drug release by tetrazines. As to conditions: tetrazine 20 μM, TCO-MMAE 10 μM in PBS. Here is the method: A solution of each tetrazine (20 μM final concentration) in PBS is mixed with TCO-MMAE (10 μM final concentration). The solution is mixed thoroughly and an aliquot removed at the appropriate time for analysis by LCMS.
Another assay concerns NCI-N87 xenograft. In words: Efficacy study in subcutaneous NCI-N87 xenograft model in CB17 SCID mice. The format is in vivo, mice (Mus musculus). As to conditions: for TGI: P<0.05 vs vehicle; for mean tumor size on day 35: vehicle 1009 mm^3. As to the method: Methods: 110 CB17 SCID female mice (Mus musculus; age: 6-8 weeks; body weight: 18-22 g; Shanghai LingChang Biotech Co., LTD) were inoculated subcutaneously at right flank with NCI-N87 cells (3×10^6 cells was suspended in 0.2 mL mixture of 1640 with (1640: Matrigel=1:1) BD Matrigel for tumor development). After 7 days inoculation, 70 animals were divided into 8 groups with 10 animals in group 1, 2, 5, 6, 7 and 8, and with 5 animals in group 3 and 4 using stratified random grouping based on their body weight and tumor volume. The treatments were started from the mean tumor size reached to 158 mm^3 (106-221 mm^3) for these 70 mice. Group 1: Vehicle, i.v., QD×3×2 weeks. Group 2: MMAE, 0.25 mpk, i.v., QW×2 weeks. […] Group 4: Compound A, 20 mpk, i.v., QD×3×2 weeks. […] Group 7: SQL70, 100 μL, i.t.×1 dose+Compound A, 1.9 mpk, i.v., QD×5. Group 8: T-DM1, 3 mpk, i.v., QW×2 weeks. The tumor sizes and body weight were measured twice a week during the treatment. The dosing schedule was finished on day PG-D10. The entire study was terminated on PG-D37 and collected all the tumor samples for group 5 and 6, and 3 tumors/group for group 1 and 2.
Experimental Methods and Procedures: Cell preparation and implantation: The NCI-N87 (Gastric carcinoma, ATCC® CRL-5822™, Lot No. 7686255) cells were maintained in vitro as a monolayer culture in RPMI-1640 medium supplemented with 10% heat inactivated fetal bovine serum, 100 U/mL penicillin and 100 μg/mL streptomycin at 37° C. in an atmosphere of 5% CO2 in air. The tumor cells were routinely sub-cultured per 5 days by trypsin-EDTA treatment. The cultured NCI-N87 cells were harvested, re-suspended in base medium at a density of 1.5×10^7 cells/mL with viability >90%. Each mouse was inoculated subcutaneously at the right flank with 3×10^6 in 0.2 mL mixture of 1640 with (1640: Matrigel=1:1) BD Matrigel for tumor development.
Randomization and administration: The treatments were started from the mice were grouped based on their mean tumor size reached 158 mm^3 (106-221 mm^3) for group 1-8. Each group consisted of 10 or 5 mice. The test article was administrated to the mice according to the regimen as shown in the experimental design table (Table 4).
Tumor Measurements and Endpoints: The major endpoint is to see if the tumor growth can be delayed or mice can be cured. […] The tumor sizes were then used for the calculations of both tumor growth inhibition (TGI) values.
The T/C value (in percent) is an indication of antitumor effectiveness, T/C (%)=RTVTreatment/RTVControl×100% (RTVTreatment: the mean RTV of the treatment group; RTVControl: the mean RTV of the vehicle treated group). RTV (relative tumor volume)=TVDayN/TVDay0. TVDayN and TVDay0 is the tumor volume on day N and Day 0 respectively. T/C (%)≤42% is considered as significant antitumor activity and <10% is considered as highly significant antitumor activity by the United States National Cancer Institute criteria.
Statistical Analysis: The tumor volume between different groups was analyzed by two-way repeated measures ANOVA followed by the Tukey's post hoc test. All data were analyzed using GraphPad Prism 6.0. P<0.05 is considered to be statistically significant.

[2] abbreviates: Group 2: MMAE 0.25 mpk i.v. QW×2 weeks, day 35.
Where [3] appears, read: Group 4: Compound A 20 mpk i.v. QD×3×2 weeks, day 35.

Square brackets hold non-standard residues; d marks the D form. Peptide text beside a SMILES is read from it. * marks the point of attachment. Dolaproine = CO[C@@H]([C@@H]1CCCN1)[C@@H](C)C(=O)O; Dil = CC[C@H](C)[C@H](NC)[C@@H](CC(=O)O)OC; X1 = C[C@@H](N*)[C@@H](O)c1ccccc1; NMeV = CN[C@H](C(=O)O)C(C)C

For the molecule `Cc1nnc(-c2ccccn2)nn1`, in assay [1], the “% TCO-MMAE consumed (1 h)” value is 100% and the “% MMAE released (24 h)” value is recorded as 28%.
For `Cc1nnc(-c2ccc(CN)c(C(F)(F)F)c2)nn1` the same measures were 100% and 51%.
Turning to `CC[C@H](C)[C@@H]([C@@H](CC(=O)N1CCC[C@H]1[C@H](OC)[C@@H](C)C(=O)N[C@H](C)[C@@H](O)c1ccccc1)OC)N(C)C(=O)[C@@H](NC(=O)[C@@H](NC)C(C)C)C(C)C` [MMAE] (H-[NMeV]V[Dil][Dolaproine]-X1), in the assay with NCI-N87 xenograft (setting [2]), the T/C (usually the ratio of treated to control) is 57.50% and the TGI (as a rule, how far tumour growth fell short of that in controls) came to 49.68%. In addition, the “mean tumor size on day 35” value in the assay with NCI-N87 xenograft (Group 2: MMAE 0.25 mpk i.v. QW×2 weeks, day 35 after grouping) was 586 mm^3.
With `Cc1nnc(-c2ccc(C(F)(F)F)c(CN)c2)nn1`, in assay [1], the “% TCO-MMAE consumed (1 h)” value was found to be 100% and the “% MMAE released (24 h)” value is on record as 46%.
For `Cc1nnc(-c2cocn2)nn1` the same measures were 42% and 62%.
For `Cc1nnc(-c2cn(C)cn2)nn1` the same measures were 74% and 40%.
In the assay on NCI-N87 xenograft (setting [3]), `CC[C@H](C)[C@@H](C(CC(=O)N1CCC[C@H]1[C@H](OC)[C@@H](C)C(=O)N[C@H](C)[C@@H](O)c1ccccc1)OC)N(C)C(=O)[C@@H](NC(=O)[C@H](C(C)C)N(C)C(=O)O[C@H]1/C=C/CC[C@@](C)(C(=O)O)CC1)C(C)C` (stereo partly drawn) [Compound A] came in with a T/C of 62.12% and a TGI of 41.74%. In addition, in the assay with NCI-N87 xenograft (Group 4: Compound A 20 mpk i.v. QD×3×2 weeks, day 35 after grouping), the “mean tumor size on day 35” value is 653 mm^3.
As for `Cc1nnc(-c2ncccn2)nn1`, in assay [1], the “% TCO-MMAE consumed (1 h)” value is on record as 100% and the “% MMAE released (24 h)” value is recorded as 29%.
For `Cc1nnc(-n2cccn2)nn1` the same measures were 81% and 35%.
As for T-DM1, the “mean tumor size on day 35” value with NCI-N87 xenograft (Group 8: T-DM1 3 mpk i.v. QW×2 weeks, day 35) worked out at 873 mm^3.

(Values after patent publication US20250186592A1, “TETRAZINE CONJUGATES FOR IN VIVO TARGETED DELIVERY OF A PAYLOAD” (Tambo, Inc., priority 2021, published 2025).)
